The subject of series [1] is mouse pancreatic islets. Briefly: Islet cell insulin secretion assay (glucose-stimulated insulin secretion, insulin content). In kind it is cell-based. As to the method: A critical physiological role of GLP-1 is to augment glucose-stimulated insulin secretion (GSIS) from pancreatic islet β cells. α/β-Peptide SEQ. ID. […] The results are depicted in FIG. 2.
ID. NO: 7. Approximately 100 medium sized islets were washed three times, placed in a sterile Petri dish, and incubated overnight in culture medium (RPMI 1640, with 11.1 mM glucose, antibiotics and 10% heat-inactivated fetal bovine serum). The following day, 50 islets were washed and transferred in […] of Krebs Ringer Buffer (KRB) to a Swinnex®-brand filter holder (EMD Millipore, Billerica, Mass.). The islets were sandwiched between two layers of Bio-Gel P-2 bead (Bio-Rad, Hercules, Calif.) solution (200 mg beads/mL in KRB; bottom layer, […] and top layer, […]). The Swinnex filter holder was attached in-line with a Minipuls®-brand pump (Gilson, Middleton, Wis.) and a FC 204 Fraction Collector (Gilson). Islets were perifused at the rate of 1 mL/min, and samples were collected at 30 sec intervals. Insulin content of the islets themselves and insulin secretion were determined by ELISA. […] ID. NO: 7.

Series [2] addresses human GLP-1 receptor (Homo sapiens, UniProt P43220). Briefly: GLP-1R activation monitored by cAMP production in HEK293 cells.
The target in series [3] is T1, neprilysin (Homo sapiens, UniProt P08473).
T1 construct: purchased Reprokine; Ltd. RKP08473
Briefly: Protease assay with neprilysin (HPLC). In kind it is in vitro ADME. Particulars: 40 μg/mL neprilysin.
Description: An HPLC method from the literature was used to assess protease action on selected compounds.^29,31 Two nmol of solid peptide was dissolved in 40 μL of TBS pH 8.0 (resulting concentration of peptide=40 μM) before protease was added. Chymotrypsin was purchased from Promega (Fitchburg, Wis.; catalog #V1062), and neprilysin was purchased from Reprokine. Ltd. (Valley Cottage, N.Y.; catalog #RKP08473); stock solutions of 250 μg/mL chymotrypsin and 200 μg/mL neprilysin in water were prepared. A 10 μL aliquot of protease stock solution was added to 40 μL of 40 μM peptide solution to begin the reaction. Periodically, a 10 μL aliquot of the solution was removed, and protease action was halted by adding this aliquot to 100 μL of 1% aqueous TFA solution. […] The time course of peptide degradation was experimentally determined by integrating the area of each peak in a series of HPLC traces. The area percent of parent peptide (relative to the initial trace) was calculated for each trace and plotted in GraphPad Prism as an exponential decay to determine half-life values.
Major backbone cut sites, as determined by MALDI-TOF-MS, are indicated with double front slashes.

The target of series [4] is T2, chymotrypsin (Bos taurus, UniProt P00766).
T2 construct: purchased Promega V1062
Briefly: Protease assay with chymotrypsin (HPLC). In kind it is in vitro ADME. Conditions: chymotrypsin in TBS; 40 μM peptide, 50 μg/mL chymotrypsin, TBS pH 8.0, room temperature; read-out: t1/2 with chymotrypsin (converted). On the procedure:
An HPLC method from the literature was used to assess protease action on selected compounds.^29,31 Two nmol of solid peptide was dissolved in 40 μL of TBS pH 8.0 (resulting concentration of peptide=40 μM) before protease was added. Chymotrypsin was purchased from Promega (Fitchburg, Wis.; catalog #V1062), and neprilysin was purchased from Reprokine. Ltd. (Valley Cottage, N.Y.; catalog #RKP08473); stock solutions of 250 μg/mL chymotrypsin and 200 μg/mL neprilysin in water were prepared. A 10 μL aliquot of protease stock solution was added to 40 μL of 40 μM peptide solution to begin the reaction. Periodically, a 10 μL aliquot of the solution was removed, and protease action was halted by adding this aliquot to 100 μL of 1% aqueous TFA solution. A portion (100 μL) of the quenched solution was injected onto an HPLC column using the conditions described under “Peptide Synthesis”, and peaks were analyzed using MALDI-TOF MS. The time course of peptide degradation was experimentally determined by integrating the area of each peak in a series of HPLC traces. The area percent of parent peptide (relative to the initial trace) was calculated for each trace and plotted in GraphPad Prism as an exponential decay to determine half-life values.
ID. […] Major backbone cut sites are indicated with double front slashes. […] Digestion occurs at three major cleavage sites. […] ID. NO: 7 with 50 μg/mL chymotrypsin in TBS pH 8.0 at room temperature. […] ID. NO: 9 with 50 μg/mL chymotrypsin in TBS pH 8.0 at room temperature. This peptide has seven substitutions, α→Aib.

Series [5] has as its system C57BL/6J mice. Briefly: Glucose tolerance test (GTT) in mice. In kind it is in vivo, mouse. As to the method:
ID. NO: 7 was administered to mice by interperitoneal (i.p.) injection at a 1 mg/kg dose, or lower for SEQ. ID. NO: 7, using an injection volume of 10 mL/kg body mass. Each peptide was first dissolved in prefiltered DMSO at 10 mg/mL concentration, then diluted >20-fold with TBS buffer, pH 7.4 (final DMSO conc.=<5%). Glucose was administered by i.p. injection with a sterile-filtered 30% D-glucose-saline solution at a 1.5 g/kg dose using a 5 mL/kg injection volume.
Thirteen-week-old male C57BL/6J mice (The Jackson Laboratory) (n=4) were fasted overnight on wood chip bedding for 15 hours prior to the experiment. Blood glucose levels were monitored from a tail tip bleed using an ACCU-CHEK®-brand blood glucose meter (Roche Diagnostics, Indianapolis, Ind.). Fasting glucose levels were measured at 75 minutes prior to the glucose injection (t=−75 min), and the compound injection was performed 60 minutes prior to the glucose injection (t=−60 min). Glucose levels were measured immediately prior to the glucose injection (t=0 min) to assess any changes in the baseline glucose caused by peptide administration. Blood glucose levels were monitored at 30, 60, 90, and 120 minutes after injection of glucose.
Five hours after peptide injection, the mice received a second injection of 1.5 g/kg glucose. Blood glucose was monitored at 30 min after this second glucose injection. Mice were sacrificed by CO2 inhalation at the conclusion of the GTT.

As a reminder, the EC50 is the concentration needed to bring the measured effect to its halfway point. The low end stands for an effect from little substance, the high end for a need for much substance.

Bounds are passed on as bounds.

human GLP-1 receptor, sequence (P43220 24-463): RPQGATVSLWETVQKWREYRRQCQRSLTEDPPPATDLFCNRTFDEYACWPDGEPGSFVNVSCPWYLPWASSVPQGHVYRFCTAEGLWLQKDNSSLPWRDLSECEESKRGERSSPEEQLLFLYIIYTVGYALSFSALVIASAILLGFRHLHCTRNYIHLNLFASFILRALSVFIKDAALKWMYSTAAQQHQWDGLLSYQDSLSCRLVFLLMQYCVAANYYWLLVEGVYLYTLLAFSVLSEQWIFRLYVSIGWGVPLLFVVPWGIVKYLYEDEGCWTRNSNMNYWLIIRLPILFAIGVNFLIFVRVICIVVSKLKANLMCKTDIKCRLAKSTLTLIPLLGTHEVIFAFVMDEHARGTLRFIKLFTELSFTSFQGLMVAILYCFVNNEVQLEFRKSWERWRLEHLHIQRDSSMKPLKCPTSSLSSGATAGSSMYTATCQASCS
T1 sequence (P08473 whole entry): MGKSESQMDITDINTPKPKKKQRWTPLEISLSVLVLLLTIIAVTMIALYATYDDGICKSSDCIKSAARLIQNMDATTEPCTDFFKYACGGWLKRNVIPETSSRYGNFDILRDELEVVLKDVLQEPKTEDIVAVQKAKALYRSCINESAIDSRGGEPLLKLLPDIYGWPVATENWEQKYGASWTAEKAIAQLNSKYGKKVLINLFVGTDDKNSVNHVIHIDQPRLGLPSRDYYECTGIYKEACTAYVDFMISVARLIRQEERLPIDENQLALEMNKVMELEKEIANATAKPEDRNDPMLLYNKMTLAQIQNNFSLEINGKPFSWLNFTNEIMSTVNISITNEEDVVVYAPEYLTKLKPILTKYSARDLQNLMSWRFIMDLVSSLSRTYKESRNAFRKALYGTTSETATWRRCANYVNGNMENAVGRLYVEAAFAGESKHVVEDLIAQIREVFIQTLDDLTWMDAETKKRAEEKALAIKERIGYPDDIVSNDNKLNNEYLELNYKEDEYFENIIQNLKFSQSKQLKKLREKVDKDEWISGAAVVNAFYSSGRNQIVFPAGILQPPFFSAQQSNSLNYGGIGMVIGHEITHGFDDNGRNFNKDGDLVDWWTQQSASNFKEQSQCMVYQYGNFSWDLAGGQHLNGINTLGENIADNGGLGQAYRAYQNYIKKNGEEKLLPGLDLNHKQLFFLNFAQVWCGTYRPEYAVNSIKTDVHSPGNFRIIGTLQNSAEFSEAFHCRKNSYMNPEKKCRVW

For the molecule `CC[C@H](C)[C@H](NC(=O)[C@H](Cc1ccccc1)NC(=O)[C@H](CCC(=O)O)NC(=O)[C@H](CCCCN)NC(=O)[C@H](C)NC(=O)[C@H](C)NC(=O)[C@H](CCC(N)=O)NC(=O)CNC(=O)[C@H](CCC(=O)O)NC(=O)[C@H](CC(C)C)NC(=O)[C@H](Cc1ccc(O)cc1)NC(=O)[C@H](CO)NC(=O)[C@H](CO)NC(=O)[C@@H](NC(=O)[C@H](CC(=O)O)NC(=O)[C@H](CO)NC(=O)[C@@H](NC(=O)[C@H](Cc1ccccc1)NC(=O)[C@@H](NC(=O)CNC(=O)[C@H](CCC(=O)O)NC(=O)[C@H](C)NC(=O)[C@@H](N)Cc1c[nH]cn1)[C@@H](C)O)[C@@H](C)O)C(C)C)C(=O)N[C@@H](C)C(=O)N[C@@H](Cc1c[nH]c2ccccc12)C(=O)N[C@@H](CC(C)C)C(=O)N[C@H](C(=O)N[C@@H](CCCCN)C(=O)NCC(=O)N[C@@H](CCCNC(=N)N)C(N)=O)C(C)C` [GLP-1(7-36)-NH2], in series [1] (freshly isolated mouse islets, 90 nM agonist), the “increase in glucose-stimulated insulin secretion (GSIS)” value was around 2 fold.
On to `CC[C@H](C)[C@H](NC(=O)[C@H](Cc1ccccc1)NC(=O)[C@H](CCC(=O)O)NC(=O)C1CCCC1NC(=O)[C@H](C)NC(=O)[C@H](C)NC(=O)[C@H](CCC(N)=O)NC(=O)C1CCCC1NC(=O)[C@H](CCC(=O)O)NC(=O)[C@H](CC(C)C)NC(=O)[C@H](Cc1ccc(O)cc1)NC(=O)C1CCCC1NC(=O)[C@H](CO)NC(=O)[C@@H](NC(=O)[C@H](CC(=O)O)NC(=O)C1CCCC1NC(=O)[C@@H](NC(=O)[C@H](Cc1ccccc1)NC(=O)[C@@H](NC(=O)CNC(=O)[C@H](CCC(=O)O)NC(=O)[C@H](C)NC(=O)[C@@H](N)Cc1c[nH]cn1)[C@@H](C)O)[C@@H](C)O)C(C)C)C(=O)NC1CCCC1C(=O)N[C@@H](Cc1c[nH]c2ccccc12)C(=O)N[C@@H](CC(C)C)C(=O)N[C@H](C(=O)NC1CNCC1C(=O)NCC(=O)N[C@@H](CCCNC(=N)N)C(=O)NCC(N)=O)C(C)C` (some centres unmarked) [SEQ. ID. NO: 6, H-HAEGTFTXDVSXYLEXQAAXEFIXWLVZGRG-NH2], for which the EC50 in series [2] was above 100 nM. The “cAMP production at 100 nM (in words)” value in series [2] (100 nM peptide) is recorded as “only a small amount of cAMP production”. Also, in series [2] (peptide concentration −7 (log M)), the “cAMP production, AVERAGES at M Concentrations −7” value was 100. Also, the “cAMP production, AVERAGES at M Concentrations −8” value in series [2] (peptide concentration −8 (log M)) stood at 99.2328. For the same molecule, the “cAMP production, AVERAGES at M Concentrations −9” value in series [2] (peptide concentration −9 (log M)) is reported as 42.7672. Further, the “cAMP production, AVERAGES at M Concentrations −10” value in series [2] (peptide concentration −10 (log M)) stood at 18.05. For the same molecule, in series [2] (peptide concentration −12 (log M)), the “cAMP production, AVERAGES at M Concentrations −12” value is on record as 5.688. Also, the “cAMP production, AVERAGES at M Concentrations −13” value in series [2] (peptide concentration −13 (log M)) is recorded as 5.688.
On to `CC[C@H](C)[C@H](NC(=O)[C@H](Cc1ccccc1)NC(=O)[C@H](CCC(=O)O)NC(=O)C(C)(C)NC(=O)[C@H](C)NC(=O)[C@H](C)NC(=O)[C@H](CCC(N)=O)NC(=O)C(C)(C)NC(=O)[C@H](CCC(=O)O)NC(=O)[C@H](CC(C)C)NC(=O)[C@H](Cc1ccc(O)cc1)NC(=O)C(C)(C)NC(=O)[C@H](CO)NC(=O)C(C)(C)NC(=O)[C@H](CC(=O)O)NC(=O)[C@H](CO)NC(=O)[C@@H](NC(=O)[C@H](Cc1ccccc1)NC(=O)[C@@H](NC(=O)CNC(=O)[C@H](CCC(=O)O)NC(=O)C(C)(C)NC(=O)[C@@H](N)Cc1c[nH]cn1)[C@@H](C)O)[C@@H](C)O)C(=O)NC(C)(C)C(=O)N[C@@H](Cc1c[nH]c2ccccc12)C(=O)N[C@@H](CC(C)C)C(=O)N[C@H](C(=O)NC(C)(C)C(=O)NCC(=O)N[C@@H](CCCNC(=N)N)C(=O)NCC(N)=O)C(C)C` [SEQ. ID. NO: 9], for which the “number of major cleavage sites, neprilysin” value in series [3] (MALDI-TOF-MS) is “six”. Further, the half-life in series [3] (neprilysin in TBS, pH 8, 40 μM peptide, TBS pH 8.0, room temperature, read-out: half-life (t1/2) with neprilysin (converted)) was 498 min; in series [4], 2.25 min.
Turning to `CC[C@H](C)[C@H](NC(=O)[C@H](Cc1ccccc1)NC(=O)[C@H](CCC(=O)O)NC(=O)[C@H](CCCCN)NC(=O)[C@H](C)NC(=O)[C@H](C)NC(=O)[C@H](CCC(N)=O)NC(=O)CNC(=O)[C@H](CCC(=O)O)NC(=O)[C@H](CC(C)C)NC(=O)[C@H](Cc1ccc(O)cc1)NC(=O)[C@H](CO)NC(=O)[C@H](CO)NC(=O)C(C)(C)NC(=O)[C@H](CC(=O)O)NC(=O)[C@H](CO)NC(=O)[C@@H](NC(=O)[C@H](Cc1ccccc1)NC(=O)[C@@H](NC(=O)CNC(=O)[C@H](CCC(=O)O)NC(=O)[C@H](C)NC(=O)[C@@H](N)Cc1c[nH]cn1)[C@@H](C)O)[C@@H](C)O)C(=O)N[C@@H](C)C(=O)N[C@@H](Cc1c[nH]c2ccccc12)C(=O)N[C@@H](CC(C)C)C(=O)N[C@H](C(=O)N[C@@H](CCCCN)C(=O)NCC(=O)N[C@@H](CCCNC(=N)N)C(=O)NCC(N)=O)C(C)C` [SEQ. ID. NO: 14], the “agonist character at GLP-1R (in words)” value in series [2] (cAMP production) was “native-like efficacy and potency”.
“Exendin-4: GLP-1R agonist found in the saliva of the Gila monster (39 residues), active agent in exenatide; purchased from Anaspec”: the “rise of glucose relative to vehicle-treated mice during the GTT (in words)” value in series [5] (1 mg/kg) is “dramatic suppression”. Besides, the “Average Blood Glucose Level” value is listed as 89.5 mg/dL in series [5] (1 mg/kg i.p., time 0.0 min); 123.5 mg/dL in series [5] (1 mg/kg i.p., time 30.0 min); 87.0 mg/dL in series [5] (1 mg/kg i.p., time 60.0 min); 67.5 mg/dL in series [5] (1 mg/kg i.p., time 90.0 min); 70.0 mg/dL in series [5] (1 mg/kg i.p., time 120.0 min); 118.0 mg/dL in series [5] (1 mg/kg i.p., time −60.0 min (peptide injection)). In series [5] (1 mg/kg i.p., Table 7, 30 min after second glucose injection given five hours after peptide), the “Average Blood Glucose Level at 30 min (column head AUC)” value came to 118.8. In addition, in series [5] (1 mg/kg, 30 min after the second glucose challenge), the “glucose-lowering effect in GTT repeated 5 hours after agonist administration (in words)” value is on record as “maintained”.
“GLP-1: glucagon-like peptide-1; used loosely for GLP-1(7-36)-NH2 (Tables 3, 5) or GLP-1(7-37)-NH2”: the “Insulin Content average (ng/3 islets)” value in series [1] (high glucose + 3 nM peptide) is 522.1 ng/3 islets; in series [1] (high glucose + 10 nM peptide) it was 496.4 ng/3 islets; in series [1] (high glucose + 30 nM peptide), 458.6 ng/3 islets; in series [1] (high glucose + 90 nM peptide), 463.1 ng/3 islets.

The record behind these values is patent US9738697B2 (Wisconsin Alumni Research Foundation, priority 2013, dated 2017).
